{"source": "patent US20090017003A1", "about": "“THIOSULFONATE ANTI-INFLAMMATORY AGENTS” (SULFIDRIS S.R.L., priority 2006, published 2009)", "key": {"[1]": {"type": "in vivo", "details": "male rats, once daily by gavage for three days, diclofenac 10 mg/kg, compound of example 5 14 mg/kg", "description": "Thirty male rats (150-200 g) were divided into three groups of 10 animals/group and treated with vehicle, diclofenac (10 mg/kg) and the compound of example 5 (14 mg/kg) for three days once daily by gavage. The vehicle consisted in 1 mL of 0.5% carboxymethylcellulose (CMC). At the fifth day, survival animals were sacrificed, by an overdose of ether, and autopsied to detect any pathological changes, particularly in the gastrointestinal tract. Prostaglandin E2 was evaluated in the liver homogenate by standard enzyme immunoassay procedure as described by Warner T D et al. (J.P.E.T. 2004, 310, 642-7)."}, "gp91^phox": {"tested_on": "gp91^phox", "assay": "gp91phox expression by cultured pulmonary endothelial cells", "type": "cell-based, porcine", "details": "16 hr incubation of pig pulmonary artery cells with TNFα", "source_text": "(§1) Effects of the compound prepared in example 4 on superoxide formation, gp91^phox expression by porcine cultured pulmonary endothelial cells and intact cavernosal tissue were studied according to Muzzaffar S. et al. (Br. J. Pharmacol. 2005 September; 146(1):109-17)."}, "superoxide formation": {"tested_on": "superoxide formation", "assay": "Superoxide formation by cultured pulmonary endothelial cells", "type": "cell-based, porcine", "source_text": "as §1"}, "DU-145 [2]": {"tested_on": "DU-145", "assay": "Growth and adhesion to endothelial cells of DU-145 prostate tumour cells in vitro", "type": "cell-based", "description": "(§2) The compound described in example 6 has been tested in vitro on 2 prostate tumour cells (DU-145 and PC-3). […] The activity reported in the literature for the parent compound (valproic acid) on the same tumour cells is achieved at much higher concentrations (1 mM). (Engl. T et al. Life Sciences, 2005)."}, "PC-3 [3]": {"tested_on": "PC-3", "assay": "Growth and adhesion to endothelial cells of PC-3 prostate tumour cells in vitro", "type": "cell-based", "description": "as §2"}, "DU-145 [4]": {"tested_on": "DU-145", "details": "DU-145 prostate tumour cells; Engl T. et al., Life Sciences 2005; cited from earlier work"}, "PC-3 [5]": {"tested_on": "PC-3", "details": "PC-3 prostate tumour cells; Engl T. et al., Life Sciences 2005; cited from earlier work"}}}
{"smiles": "O=C(O)Cc1ccccc1Nc1c(Cl)cccc1Cl", "note": "[Diclofenac, diclofenac, reference compound]", "values": [{"measurement": "% deaths", "setting": "[1]; 10 animals/group", "value": 40, "unit": "%"}]}
{"smiles": "CCCc1nn(C)c2c(=O)[nH]c(-c3cc(S(=O)(=O)N4CCN(CC(=O)OCCSS(C)(=O)=O)CC4)ccc3OCC)nc12", "note": "[Example 4, {4-[4-ethoxy-3-(1-methyl-7-oxo-3-propyl-6,7-dihydro-1H-pyrazolo[4,3-d]pyrimidin-5-yl)-benzenesulfonyl]-piperazin-1-yl}-acetic acid 2-methanesulfonylsulfanyl-ethyl ester]", "values": [{"measurement": "inhibition of gp91phox expression", "setting": "gp91^phox", "value": "inhibited"}, {"measurement": "inhibition of superoxide formation", "setting": "superoxide formation; 16 hr incubation of pig pulmonary artery cells with TNFα", "value": "potent inhibitor"}, {"measurement": "inhibition of superoxide formation", "setting": "superoxide formation; 16 hr incubation of pig pulmonary artery cells with thromboxane A2 analogue U46619", "value": "potent inhibitor"}, {"measurement": "concentration reducing superoxide formation compared with sildenafil citrate", "setting": "superoxide formation; response to inflammatory mediators", "value": "lower concentrations than sildenafil citrate"}]}
{"smiles": "CS(=O)(=O)SCCOC(=O)Cc1cccc(Nc2c(Cl)cccc2Cl)c1", "note": "[Example 5, [3-(2,6-dichloro-phenylamino)-phenyl]-acetic acid 2-methanesulfonylsulfanyl-ethyl ester]", "values": [{"measurement": "% gastrointestinal ulcer", "setting": "[1]; autopsy at fifth day", "value": 10, "unit": "%"}]}
{"smiles": "CCCC(CCC)C(=O)OCCSS(C)(=O)=O", "note": "[Example 6, 2-propyl-pentanoic acid 2-methanesulfonylsulfanyl-ethyl ester]", "values": [{"measurement": "concentration range inhibiting adhesion to endothelial cells", "setting": "DU-145 [2]", "value": "5 to 30", "unit": "µM"}, {"measurement": "concentration range inhibiting growth", "setting": "DU-145 [2]", "value": "5 to 30", "unit": "µM"}, {"measurement": "concentration range inhibiting adhesion to endothelial cells", "setting": "PC-3 [3]", "value": "5 to 30", "unit": "µM"}, {"measurement": "concentration range inhibiting growth", "setting": "PC-3 [3]", "value": "5 to 30", "unit": "µM"}]}
{"smiles": "CCCC(CCC)C(=O)O", "note": "[valproic acid]", "values": [{"measurement": "concentration at which activity is achieved (literature)", "setting": "DU-145 [4]", "value": 1, "unit": "mM"}, {"measurement": "concentration at which activity is achieved (literature)", "setting": "PC-3 [5]", "value": 1, "unit": "mM"}]}
